Assay results taken from patent publication US7084239B1, “Cancer peptides of NY-ESO-1/CAG-3” (The United States of America as represented by the …, priority 1997, dated 2006).
Entries after “also recorded” stand apart in the source; their conditions may differ.

How the values were obtained:
Type in all cases: cell-based, human
[1] = test system: CTL clone 5; assay: GM-CSF release by CTL clone 5 on peptide-pulsed EBV B cells
Experimental: DNA transfection and GM-CSF assay were done as previously described (Wang, R. F., P. F. Robbins, Y. Kawakami, X. Q. Kang, and S. A. Rosenberg, 1995, J. Exp. Med. 181:799–804). Briefly, […] of DNA carrying a different fragment and 50 ng of the HLA-A31 DNA were mixed with 2 μl of lipofectamine in 100 μl of serum-free DMEM for 15–45 min. The DNA/lipofectamine mixture was then added to the COS-7 (5×10^4) cells and incubated overnight. The following day, cells were washed twice with DMEM medium. TIL586, CTL clone 5 or CTL clone 10 were added at a concentration of 5×10^4 cells/well in AIM-V medium containing 120 IU/ml of IL-2. After 18–24 h incubation, 100 μl of supernatant was collected and GM-CSF was measured in a standard ELISA assay (R+D Systems, Minneapolis, Minn.). For peptides, 586EBV, 1510EBV and T2 cells were incubated with peptides at 37° C. for 90 min, and then washed three times with AIM-V medium containing 120 IU/ml of IL-2. T cells were added and incubated for additional 18–24 h, 100 μl of supernatant was collected for GM-CSF assay. In some experiments, IFN-γ release assays were done using a standard ELISA kit (Endogen, Woburn, Mass.).
These peptides were pulsed onto HLA-A31-positive 1510EBV B cells and tested for their ability to stimulate cytokine release by CTL clone 5. […] CTL clone 10 recognized the same peptide as CTL clone 5 (data not shown). […] The reactivity of CTL clone 5 was undetectable when either the ESO9-54 or the ESO10-127 peptides were used at concentrations below 100 nM to sensitize EBV cells.

[2] = test system: CTL clone 5; assay: Chromium release cytolysis of peptide-pulsed target cells by CTL clone 5
Experimental: FIGS. 5A–5C. Characterization of the 9-mer ESO9-54 and 10-mer ESO10-53 derived from the normal open reading frame. FIG. 5A. 586EBV or 1510EBV B cells were pulsed with ESO10-53 and ESO9-54 peptides at different concentrations for 120 min. After two washes with AIM-V medium with 120 IU IL-2, CTL clone 5 (1×10^5/well) was added and incubated for 18 to 24 h. GM-CSF release by CTL clone 5 was determined by ELISA. FIG. 5B. 586mel cells were lysed by CTL clone 5, but 397mel cells were not lysed by CTL clone 5 at different E:T ratios. FIG. 5C. 586EBV and 1510EBV B cells were labeled with chromium overnight. The ESO10-53 peptide was then pulsed on the chromium-labeled 586EBV, 1510EBV, and T2 cells for 120 min. An irrelevant peptide containing an HLA-A31 peptide-binding motif was also pulsed on chromium-labeled 586EBV, 1510EBV B cells as negative controls. After peptide incubation and two washes, cytolysis of target cells by CTL clone 5 was determined in a 4-h chromium release assay. T2 pulsed with the ESO10-53 peptide was used for the specificity control.
Cytolytic assay was done as previously described (Kawakami, Y et al., 1994, Proc. Natl. Acad. Sci. USA 91:6458–62). Briefly, the target cells were labeled with chromium for 90 min. After washing three times, the cells were incubated with peptides at a concentration of 1 μg/ml for 90 min. The cells were washed again, counted, and then mixed with TIL586 or CTL clone 5 at the indicated ratio of effector: targets (E:T). Chromium release was measured after 4 h incubation. The peptides were synthesized by a solid-phase method using a peptide synthesizer (Model AMS 422, Gilson Co., Inc., Worthington, Ohio). Some peptides were purified by HPLC and had greater than 98% in purity. […] Percentage of specific lysis was determined from the equation (A−B)/(C−B)×100 where A is lysis of 586EBV B cells by TIL586 or clone 5 in the presence of a peptide, B is spontaneous release from 586EBV B cells in presence of the same peptide but in the absence of effector cells, and C is the maximum chromium release. […]

[3] = test system: CTL clone 2; assay: Chromium release cytolysis of peptide-pulsed target cells by CTL clone 2; conditions: peptide titration, 4-h chromium release, E:T ratio of 20:1 (FIG. 7B)
Excerpt: FIGS. 7A–7C. An alternative open reading frame of the NY-ESO-1 gene and antigenic peptides recognized by CTL. FIG. 7A. Identification of antigenic peptides from the ORF2. Thirty peptides were synthesized based on all potential ORFs and screened. Representative data are shown here. Seven peptides derived from ORF2 (see FIG. 3A) were pulsed on HLA-A31 positive 1510EBV B cells and tested for T cell recognition based on GM-CSF release ([…], SEQ ID NO: 123; […], SEQ ID NO: 124; […], SEQ ID NO: 125; […], SEQ ID NO: 46; […], SEQ ID NO: 47; […], SEQ ID NO: 126; and […], SEQ ID NO: 127). 1510 EBV alone was used as a negative control. FIG. 7B. 1510EBV B cells were labeled with chromium for 2 h. The ESORF2-10-18 peptide was then pulsed on the chromium-labeled […] (solid square) and HLA-A31-negative 1102EBV (open circle) at different concentrations. 1510EBV pulsed with ESO10-53, which was recognized by CTL clone 5, was used for the specificity control (solid triangle). After peptide incubation and three washes, cytolysis of target cells by CTL-clone 2 was determined in a 4-h chromium release assay at an E:T ratio of 20:1. FIG. 7C. Several tumor lines and fresh breast tumors were tested for recognition by CTL clone 2 to determine whether the ORF2 is translated in different tumors. 1510EBV B cells pulsed with […] (SEQ ID NO: 25) (ESO10-53), […] (SEQ ID NO: 47) (ORF2-10-18), or alone were included to evaluate the reactivity and specificity of CTL clone 2 and 5. […]
Cytolytic assay was done as previously described (Kawakami, Y et al., 1994, Proc. Natl. Acad. Sci. USA 91:6458–62). […] The cells were washed again, counted, and then mixed with TIL586 or CTL clone 5 at the indicated ratio of effector: targets (E:T). Chromium release was measured after 4 h incubation. […] Percentage of specific lysis was determined from the equation (A−B)/(C−B)×100 where A is lysis of 586EBV B cells by TIL586 or clone 5 in the presence of a peptide, B is spontaneous release from 586EBV B cells in presence of the same peptide but in the absence of effector cells, and C is the maximum chromium release. […]

ASGPGGGAPR (listed as Homo sapiens) [ESO10-53]
GM-CSF release by CTL clone 5, EXPT. 2 (586EBV) ([1]; 586EBV cells, peptide 0.1 μg/ml for 90 min, 5 × 10^4 CTL clone 5): 1044 (SEQ. ID NO: 25)
CTL clone 5 GM-CSF release ([1]; 1510EBV cells incubated with peptide at 0.1 μg/ml for 90 min): >2000 (SEQ. ID NO: 25) pg/ml
GM-CSF release by CTL clone 5, EXPT. 1 (1510EBV) ([1]; 1510EBV cells, peptide 0.1 μg/ml for 90 min, 5 × 10^4 CTL clone 5): 1097
Plateau of GM-CSF release from CTL clone 5 in peptide titration ([1]; at 10 μM peptide concentration (FIG. 5A)): no plateau was reached
Recognition by CTL clone 5 (cytokine release), in words ([1]; peptide pulsed onto HLA-A31-positive 1510EBV or 586EBV B cells): strongly recognized; also recorded: recognized
Peptide concentration at which CTL clone 5 reactivity is detectable ([1]; peptide titration on EBV B cells, GM-CSF release): ≤ 10 nM
Lysis of peptide-incubated 586EBV or 1510EBV by CTL clone 5 ([2]; E:T ratio of 2.5:1, 4-h chromium release): 5–10%
Lysis of peptide-incubated 586EBV or 1510EBV by CTL clone 5 ([2]; E:T ratio of 40:1, 4-h chromium release): > 60%
Lysis of HLA-A31-negative T2 cells pulsed with peptide by CTL clone 5 ([2]; T2 cells, specificity control (FIG. 5C)): nor did it lyse
Lysis of peptide-pulsed 1510EBV by CTL clone 2 [3]: failed to lyse
